Data: US8865865B2, “N-terminally modified tetrapeptide derivatives having a C-terminal arginine mimetic” (Philipps-Universitat Marburg, priority 2008, dated 2014)
Square brackets hold non-standard residues; d marks the D form. Peptide text beside a SMILES is read from it. * marks the point of attachment. hArg = N=C(N)NCCCC[C@H](N)C(=O)O; Agmatine = N=C(N)NCCCCN*; PhAc = O=C(Cc1ccccc1)*

System: MDCK cells
Experiment: not given
Conditions: 25 μM inhibitor, 72 h

For `CC(C)[C@H](NC(=O)[C@H](CCCNC(=N)N)NC(=O)Cc1ccccc1)C(=O)N[C@@H](CCCNC(=N)N)C(=O)NCc1ccc(C(=N)N)cc1` [Inhibitor 1], the “vitality of the cells” value was “not influenced”.

Biological target: furin (Homo sapiens, UniProt P09958)
Sequence (P09958 108-794, species assumed): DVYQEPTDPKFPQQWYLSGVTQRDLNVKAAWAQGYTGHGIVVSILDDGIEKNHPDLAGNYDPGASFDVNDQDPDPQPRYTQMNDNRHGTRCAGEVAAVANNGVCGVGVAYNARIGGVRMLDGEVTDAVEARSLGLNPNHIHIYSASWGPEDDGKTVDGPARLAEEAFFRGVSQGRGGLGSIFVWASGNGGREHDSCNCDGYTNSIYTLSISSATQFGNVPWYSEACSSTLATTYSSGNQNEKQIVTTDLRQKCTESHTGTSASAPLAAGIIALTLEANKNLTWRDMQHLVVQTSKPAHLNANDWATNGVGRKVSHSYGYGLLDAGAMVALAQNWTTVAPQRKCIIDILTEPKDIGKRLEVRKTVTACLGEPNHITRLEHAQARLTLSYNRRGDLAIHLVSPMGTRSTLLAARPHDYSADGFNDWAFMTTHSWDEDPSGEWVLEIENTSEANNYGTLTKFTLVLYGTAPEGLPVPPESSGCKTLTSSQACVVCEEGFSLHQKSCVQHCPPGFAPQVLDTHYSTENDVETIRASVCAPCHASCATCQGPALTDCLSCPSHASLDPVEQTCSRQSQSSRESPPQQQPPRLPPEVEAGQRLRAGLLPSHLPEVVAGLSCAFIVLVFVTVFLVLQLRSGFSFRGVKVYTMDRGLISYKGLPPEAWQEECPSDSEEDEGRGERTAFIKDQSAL
Experiment: not given
Conditions: Kacprzak et al., J. Biol. Chem. 2004; read-out: inhibition constant (Ki value) for furin; cited from earlier work

First: Nona-D-arginine-amide
Second: hexa-D-arginine-amide
The Ki of the first is 5.8-fold lower: 1.3 nM for the first, 7.6 nM for the second. The first binds more tightly here.

Biological target: T1, Recombinantly produced human furin (Homo sapiens, UniProt P09958)
T1 construct: made in house
T1 sequence (P09958 108-794): as the sequence (P09958 108-794, species assumed) above
Experiment: Enzyme kinetic studies to determine the inhibitory effect on furin (fluorogenic substrate Pyr-Arg-Thr-Lys-Arg-AMC)
Type: biochemical
Conditions: Table 2; substrate 12.5 μM, furin approx. 0.95 nM, competitive reversible model; read-out: Ki value for the inhibition of furin
Protocol: The determination of the inhibitory effect was carried out with a fluorescence plate reader Safire^2 from the Tecan company (λEx=380 nm, λEm=460 nm) and Pyr-Arg-Thr-Lys-Arg-AMC (Bachem, No: I-1650) as the substrate. Recombinantly produced human furin (Kacprzak, M. M. et al., J. Biol. Chem., 2004, 279, 36788-36794) was used in the measurement assay in a concentration of approx. 0.95 nM.
To determine the inhibition constants, the inhibitor concentration was varied at least over the range of an order of magnitude at a constant substrate concentration (12.5 μM in the assay), and, respectively, the steady-state velocity was determined. Km and Vmax were determined by means of v/S characteristics parallel to each inhibitor measurement. The calculation of Ki values was carried out through adjustment of the determined velocities as a function of the inhibitor concentration to the velocity equation for competitively, reversibly-binding inhibitors: […]

Going from `CC(C)[C@H](NC(=O)[C@H](CCCNC(=N)N)NC(=O)Cc1ccccc1)C(=O)N[C@@H](CCCNC(=N)N)C(=O)NCCCCNC(=N)N` [Inhibitor 2] (PhAc-Arg-Val-Arg-Agmatine) to `CC(C)[C@H](NC(=O)[C@H](CCCNC(=N)N)NC(=O)Cc1ccccc1)C(=O)N[C@@H](CCCCNC(=N)N)C(=O)NCCCCNC(=N)N` [Inhibitor 11] (PhAc-Arg-Val-[hArg]-Agmatine), the Ki falls from 77 nM to 47 nM (1.6-fold).

Compared with `CC(C)C(NC(=O)C(CCCNC(=N)N)NC(=O)Cc1ccccc1)C(=O)NC(CCCNC(=N)N)C(=O)NCCCCN` (stereo not drawn) [Inhibitor 2a], `CC(C)[C@H](NC(=O)[C@H](CCCNC(=N)N)NC(=O)Cc1ccccc1)C(=O)N[C@@H](CCCCN)C(=O)NCCCCNC(=N)N` [Inhibitor 10] (PhAc-Arg-Val-Lys-Agmatine) is 510-fold lower in Ki: 25000 nM for the first, 49 nM for the second. The second binds more tightly here.

First: CC(C)C(NC(=O)C(CCCNC(=N)N)NC(=O)Cc1ccccc1)C(=O)NC(CCCNC(=N)N)C(=O)NCC1CCNCC1 (stereo not drawn) [Inhibitor 3a]
Second: CC(C)C(NC(=O)C(CCCNC(=N)N)NC(=O)Cc1ccccc1)C(=O)NC(CCCNC(=N)N)C(=O)NCCCN (stereo not drawn) [Inhibitor 4a]
The Ki of the first is 7.7-fold higher: 10000 nM for the first, 1300 nM for the second.

For `CC(C)C(NC(=O)C(CCCNC(=N)N)NC(=O)Cc1ccccc1)C(=O)NC(CCCNC(=N)N)C(=O)NCCCNC(=N)N` (stereo not drawn) [Inhibitor 4], the Ki was 97 nM.

Same assay, conditions: Table 3; methods as in practical embodiment 6; read-out: Ki for the inhibition of furin

Compared with `CC(=O)NC(CCCNC(=N)N)C(=O)NC(C(=O)NC(CCCNC(=N)N)C(=O)NCCCCN)C(C)C` (stereo not drawn) [Inhibitor 12], `CC(C)C(NC(=O)C(CCCNC(=N)N)NC(=O)Cc1ccccc1)C(=O)NC(CCCCN)C(=O)NCCCCN` (stereo not drawn) [Inhibitor 14] is 7.6-fold lower in Ki: 41200 nM for the first, 5410 nM for the second. The second binds more tightly here.

First: CC(C)C(NC(=O)C(CCCNC(=N)N)NC(=O)Cc1ccccc1)C(=O)NC(CCCNC(=N)N)C(=O)NCC1CCNCC1 (stereo not drawn) [Inhibitor 15]
Second: CC(C)C(NC(=O)C(CCCNC(=N)N)NC(=O)Cc1ccccc1)C(=O)NC(CCCCN)C(=O)NCc1ccc(C(=N)N)cc1 (stereo not drawn) [Inhibitor 33]
The Ki of the first is 6500-fold higher: 9710 nM for the first, 1.5 nM for the second.

`CCCC(=O)NC(CCCNC(=N)N)C(=O)NC(C(=O)NC(CCCNC(=N)N)C(=O)NCc1ccc(C(=N)N)cc1)C(C)C` (stereo not drawn) [Inhibitor 17] and `CCCCCC(=O)NC(CCCNC(=N)N)C(=O)NC(C(=O)NC(CCCNC(=N)N)C(=O)NCc1ccc(C(=N)N)cc1)C(C)C` (stereo not drawn) [Inhibitor 18] are within 1.5-fold of each other in Ki: 0.77 nM for the first, 0.82 nM for the second.

First: CCCCCCCC(=O)NC(CCCNC(=N)N)C(=O)NC(C(=O)NC(CCCNC(=N)N)C(=O)NCc1ccc(C(=N)N)cc1)C(C)C (stereo not drawn) [Inhibitor 19]
Second: CCCCCCCCCCCC(=O)NC(CCCNC(=N)N)C(=O)NC(C(=O)NC(CCCNC(=N)N)C(=O)NCc1ccc(C(=N)N)cc1)C(C)C (stereo not drawn) [Inhibitor 21]
The Ki of the first is 8.2-fold lower: 0.82 nM for the first, 6.7 nM for the second.

First: CCCCCCCCCCCCCC(=O)NC(CCCNC(=N)N)C(=O)NC(C(=O)NC(CCCNC(=N)N)C(=O)NCc1ccc(C(=N)N)cc1)C(C)C (stereo not drawn) [Inhibitor 22]
Second: CC(C)C(NC(=O)C(N)CCCNC(=N)N)C(=O)NC(CCCNC(=N)N)C(=O)NCc1ccc(C(=N)N)cc1 (stereo not drawn) [Inhibitor 26]
The Ki of the first is 7.5-fold higher: 56.9 nM for the first, 7.6 nM for the second.

Going from `CC(C)C(NC(=O)C(CCCNC(=N)N)NC(=O)Cc1ccc(Cl)c(Cl)c1)C(=O)NC(CCCNC(=N)N)C(=O)NCc1ccc(C(=N)N)cc1` (stereo not drawn) [Inhibitor 28] to `Cc1ccc(S(=O)(=O)NC(CCCNC(=N)N)C(=O)NC(C(=O)NC(CCCNC(=N)N)C(=O)NCc2ccc(C(=N)N)cc2)C(C)C)cc1` (stereo not drawn) [Inhibitor 29], the Ki rises from 1.2 nM to 4.8 nM (4-fold).

`N=C(N)NCCCC(NC(=O)Cc1ccccc1)C(=O)NC(CN)C(=O)NC(CCCCN)C(=O)NCc1ccc(C(=N)N)cc1` (stereo not drawn) [Inhibitor 39] showed a Ki of 3.7 nM.

System: avian influenza virus (FPV) A/FPV/Rostock/34 (H7N1)
Experiment: not given
Type: cell-based, influenza virus A/FPV/Rostock/34 (H7N1)
Conditions: 25 μM inhibitor, MDCK cells, MOI 10^-5, 72 h

In the case of `CC(C)[C@H](NC(=O)[C@H](CCCNC(=N)N)NC(=O)Cc1ccccc1)C(=O)N[C@@H](CCCNC(=N)N)C(=O)NCc1ccc(C(=N)N)cc1` [Inhibitor 1], the “delay of virus release in relation to the untreated control group” value is reported as “about 24 h”.
